Assay results published in patent US8314140B2, “4-hydroxythiobenzamide derivatives of drugs” (Antibe Therapeutics Inc., priority 2006, dated 2012).

Legend:
[1] = test system: COX-1 and/or COX-2; assay: Gastric prostaglandin E2 synthesis; type: in vivo, rat; details: oral, 3 h; diclofenac 20 mg/kg or equimolar doses; FIG. 9
Method: Briefly, the tissue samples were minced with scissors for 30 min, then placed in 1 mL of sodium phosphate buffer (pH 7.4) and placed in a shaking water bath (37° C.) for 20 min.

[2] = target: T1, COX-1 (Rattus norvegicus, UniProt Q63921); assay: Whole blood thromboxane B2 synthesis in treated rats; type: in vivo; details: same rats as FIG. 12/13
T1 construct: whole blood thromboxane synthesis, which occurs via COX-1; from tissue; host or cells: rat whole blood, ex vivo after oral dosing
T1 sequence (Q63921 27-602): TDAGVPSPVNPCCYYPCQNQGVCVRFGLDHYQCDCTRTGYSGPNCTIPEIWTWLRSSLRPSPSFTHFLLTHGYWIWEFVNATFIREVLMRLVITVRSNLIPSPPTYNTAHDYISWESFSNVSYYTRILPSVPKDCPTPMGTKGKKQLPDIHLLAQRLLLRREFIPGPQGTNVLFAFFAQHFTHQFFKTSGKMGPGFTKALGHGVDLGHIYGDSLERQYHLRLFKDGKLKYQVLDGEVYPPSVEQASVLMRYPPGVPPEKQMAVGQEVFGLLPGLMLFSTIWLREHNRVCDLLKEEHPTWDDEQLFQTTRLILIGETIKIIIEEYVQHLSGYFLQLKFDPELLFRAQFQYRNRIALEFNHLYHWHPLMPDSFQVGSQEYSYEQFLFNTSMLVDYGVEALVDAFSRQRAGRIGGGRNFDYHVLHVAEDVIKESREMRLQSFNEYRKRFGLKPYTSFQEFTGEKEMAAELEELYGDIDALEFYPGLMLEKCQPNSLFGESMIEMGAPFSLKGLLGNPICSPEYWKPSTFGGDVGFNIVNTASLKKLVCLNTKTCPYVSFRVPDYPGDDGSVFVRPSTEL
Method: Inhibition of COX-1 was also measured using the same rats. […] The samples were then centrifuged for 3 min at 9,000 g and the supernatant was frozen at −80° C. for subsequent measurement of thromboxane B2 concentrations using a specific ELISA.
Inhibition of COX-1 was also measured using the same rats, using the same method as described for FIG. 11.

[3] = target: T2, COX-2 (Rattus norvegicus, UniProt P35355); assay: Rat airpouch assay, exudate PGE2 after zymosan; type: in vivo; details: oral 30 min before; diclofenac 3 mg/kg, Compound XVII 4.1 mg/kg; FIG. 12
T2 construct: from tissue; host or cells: rat subcutaneous airpouch exudate, in vivo, zymosan-induced
T2 sequence (P35355 18-604): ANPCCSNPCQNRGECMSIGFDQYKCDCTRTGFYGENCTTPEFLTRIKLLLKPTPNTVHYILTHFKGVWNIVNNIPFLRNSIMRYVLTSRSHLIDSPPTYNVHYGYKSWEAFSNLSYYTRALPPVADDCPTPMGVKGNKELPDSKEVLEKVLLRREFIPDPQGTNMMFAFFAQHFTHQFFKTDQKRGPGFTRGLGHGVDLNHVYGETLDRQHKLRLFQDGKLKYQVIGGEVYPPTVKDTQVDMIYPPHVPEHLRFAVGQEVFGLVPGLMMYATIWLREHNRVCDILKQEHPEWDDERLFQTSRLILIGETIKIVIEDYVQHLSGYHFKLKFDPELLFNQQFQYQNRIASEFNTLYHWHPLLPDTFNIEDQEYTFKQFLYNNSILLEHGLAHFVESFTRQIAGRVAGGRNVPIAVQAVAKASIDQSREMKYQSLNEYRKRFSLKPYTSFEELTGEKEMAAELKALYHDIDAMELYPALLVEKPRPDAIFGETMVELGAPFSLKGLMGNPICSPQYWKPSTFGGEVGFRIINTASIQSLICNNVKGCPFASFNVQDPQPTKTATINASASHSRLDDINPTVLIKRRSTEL
Method: Briefly, a subcutaneous “pouch” is created by repeated injections of air over several days. Once established, inflammation in the pouch can be induced by injection of 1 mL of 1% zymosan. […] Another group of 5 rats was treated with the vehicle, but received an injection of 0.9% sterile saline into the pouch rather than zymosan.
Each group consisted of 5 rats.

[4] = test system: gastric ulcers; assay: Healing of acetic acid-induced gastric ulcers; type: in vivo, rat; details: oral twice-daily for 4 days; 30 μmol/kg (naproxen, Compound XX 60 μmol/kg); FIG. 17
Method: Gastric ulcers were induced via serosal application of acetic acid, as described by Elliott et al., A nitric oxide-releasing nonsteroidal anti-inflammatory drug accelerates gastric ulcer healing in rats. […] After 4 days of such treatment, the rats were euthanized and the stomach was excised and photographed. The area (in mm^2) of the ulcer was determined planimetrically by an individual unaware of the treatments given to the rats.

[5] = test system: leukocyte adherence to the vascular endothelium; assay: Aspirin-induced leukocyte adherence, intravital microscopy of mesenteric venules; type: in vivo, rat; details: FIG. 5
Method: Leukocyte adherence was studied using intravital microscopy, as described in detail previously (Wallace et al., (1993) Am. J. Physiol. 265: 993-998, incorporated hereto by reference). Rats were anesthetized with pentobarbital sodium (60 mg/kg i.p.) and cautery incisions were made along the abdominal region. A tracheotomy was performed to facilitate breathing. The rats were placed in a supine position, and a segment of the mesentery was exteriorized through the abdominal incision. The mesentery was carefully placed over an optically clear viewing pedestal that allowed for trans-illumination of a 2-cm^2 segment of tissue. All exposed tissue was covered with saline-soaked gauze to minimize dehydration. […] A video camera mounted on the microscope (Panasonic™ digital 5000) projected the image onto a monitor, and the images were recorded for playback analysis using a videocassette recorder. Images of the mesenteric microcirculation were recorded 5 minutes prior to aspirin administration (baseline), at the time of aspirin administration (time 0-5) and every 15 minutes for 60 minutes. Leukocyte adherence was blindly quantified from videotaped images of the vessels made over 5-min periods as the number of leukocytes that remained stationary along the vessel wall for 30 s or more (expressed per 100 μm venule length). […]

NC(=S)c1ccc(O)cc1 [4-hydroxythiobenzamide]
gastric PGE2 synthesis [1]: did not reduce gastric PGE2 synthesis
COX-1 activity (whole blood thromboxane synthesis) [2]: did not significantly affect COX-1 activity
exudate PGE2 in the pouch (COX-2 activity) [3]: did not significantly affect COX-2 activity
gastric ulcer healing (ulcer surface area) [4]: did not significantly affect the healing of gastric ulcers

5-amino-2-(4-thiocarbamoyl-phenoxycarbonyloxy)-benzoic acid [Compound XXVII]
leukocyte adherence at 60-65 minutes ([5]; 100 mg/kg intragastrically 60 min prior to aspirin): suppress aspirin-induced leukocyte adherence
leukocyte adherence at 60-65 minutes after glibenclamide pretreatment ([5]; glibenclamide 10 mg/kg i.p. 30 min prior, aspirin): reverse this inhibitor effect on leukocyte adherence
